Test results from patent EP2952182A1, “Compounds and methods for increasing the immune response to papillomavirus” (Universitätsklinikum Heidelberg, priority 2014, dated 2015).

Key:
Caski cells = assay: CD107a mobilization (degranulation) assay of L1-stimulated T cells against pretreated Caski cells; format: cell-based
Procedure: PBMCs were obtained from blood of a healthy, HLA-A*0201 positive donor by density gradient centrifugation with lymphocyte separation medium (PAA, Pasching, Austria). PBMCs were resuspended in RPMI medium (Gibco, Paisley, UK), containing 5% human serum and seeded in cell culture flasks. After 4 hours of adherence at 37°C the non-adherent cells were removed. To stimulate the differentiation of monocytes into dendritic cells, the adherent fraction of cells was cultured in CellGro Medium (CellGenix, Freiburg, Germany) containing GM-CSF (1000 U/ml, Promokine, Heidelberg, Germany) and IL-4 (666,7 U/ml, Promokine, Heidelberg, Germany) for 5-7 days. Then, IL-4 and GM-CSF were added again together with a terminal differentiation-inducing cocktail containing the proinffammatory cytokines IL-6 (1000 U/ml Promokine, Heidelberg, Germany), IL-1β (10 ng/ml Promokine, Heidelberg, Germany), PGE-2 ([…], Promokine, Heidelberg, Germany) and TNF-α (10 ng/ml, Promokine, Heidelberg, Germany) were added and cells were incubated overnight. […]
To monitor the degranulation of L1-stimulated T cells (effectors) induced by Caski cells (targets), Caski cells pretreated with different concentrations of 5-Aza-2'-deoxycytidine (0.1 µM and 1.0 µM) for 12 days or untreated cells were used. […] Degranulation rate was measured as the fraction of CD107a/CD8 double staining cells relative to total CD8 positive cells (Fig. 5).

HPV16 L1 protein = assay: Detection of HPV L1 capsid protein by immunoblotting (Western blot) in treated Caski cells; format: cell-based; details: Caski cells treated for 28 days, band at approximately 55 kDa, anti HPV16 L1 polyclonal rabbit antibodies, Fig. 4
Procedure: 5-aza-2'-deoxycytidine was added daily to cultures of Caski cells at concentrations […]. Caski cells were cultured with medium changed every 24 hours. Treatments were stopped at day 28 and the cells were grown in the absence of drugs for […]. The same culture conditions were used for untreated and DMSO treated Caski cells. Samples were collected on days 7, 14, 21, 28 and 38 for genomic DNA and total RNA purifications.
Protein extracts were also obtained from Caski cells on days 7, 14, 21, 28 and 38 of treatment. Cells were lysed in RIPA buffer containing Protease Inhibitor Cocktail (Sigma). Whole-cell lysates were prepared in denaturing SDS sample buffer and subjected to 12% SDS-PAGE. Proteins were transferred to PVDF Membrane (Invitrogen) and the blots were blocked with 5% non-fat dry milk in TBS-T buffer. The anti HPV16 L1 polyclonal rabbit antibodies (kindly provided by Dr Martin Muller, DKFZ, Germany) were used to detect the HPV16 L1 protein. Horseradish peroxidase conjugated secondary antibodies (1:2000 dilution, Anti-rabbit IgG, HRP-linked Antibody #7074 (Cell Signaling) were detected using Western Blotting Chemiluminescence Luminol Reagent (Santa Cruz).

cancer cell lines = details: low-dose treatment; cited from earlier work

Structure (SMILES): Nc1ncn([C@H]2C[C@H](O)[C@@H](CO)O2)c(=O)n1 [5-aza-2'-deoxycytidine]
- fraction of T cells undergoing degranulation (CD107a/CD8 double staining cells relative to total CD8 positive cells) (Caski cells; Caski cells pretreated with 0.1 µM and 1.0 µM for 12 days vs untreated, effectors and targets 1:1, 5 hours, Fig. 5): increased
- L1 protein expression level (HPV16 L1 protein): Significant increase

Structure (SMILES): Nc1ncn([C@@H]2O[C@H](CO)[C@@H](O)[C@H]2O)c(=O)n1 [5-azacytidine]
- expression of immune-related genes (cancer cell lines): leads to expression of immune-related genes

Structure (SMILES): Nc1ncn([C@@H]2O[C@H](CO)[C@@H](O)[C@H]2O)c(=O)n1 [azacitidine]
- cytolytic activity of T-cells stimulated in vitro with L1-derived peptides towards Caski cells (Caski cells; treated Caski cells expressing the L1-antigen, degranulation rate, Fig. 5 legend): Enhanced
